{
  "source": "paper PMC7934871",
  "about": "(JCI Insight, 2021)",
  "key": {"pY705-STAT3": {"system": "pY705-STAT3", "experiment": "IL-6–induced pY705-STAT3 in splenic CD8+ T cells, Western blotting", "format": "cell-based", "conditions": "mouse splenic CD8+ T cells"}, "[1]": {"experiment": "Systemic toxicity in mice", "format": "in vivo", "conditions": "1 mg/kg i.v. every other day for 3 weeks, n = 3", "method": "To evaluate the potential toxicity associated with systemic treatments of PS-peptide, PS-acet.-STAT3 peptide, PS-oligo, naive peptide, and PO- or PS-acet.-STAT3 peptide were given to the mice at 1 mg/kg through i.v. every other day for 3 weeks.\nSupplemental Figure 10 (related to Figure 3). The systemic toxicity of PS-acet.-peptide.\nThe bodyweight (A), blood count (B) and organ morphology (H&E staining; spleen, kidney and liver) (C) of the mice (n=3) treated with HBSS (1), PS-oligo (2), naïve peptide (3), PO-peptide (4) or PS-peptide (5) every other day at 1 mg/kg (per treatment) for 3 weeks.\nIndividual value of each mouse is shown as a dot on the graph. The red lines on each graph in (B) indicate the normal ranges. Blood count was done by a veterinary hematology analyzer. The images shown in (C) are the represented H&E section from three mice (n=3). Enlarged view are shown below as indicated. Scale bar, 50 µm.\nAftabizadeh and Li et al., Figure S10"}, "exportins 1–6": {"system": "exportins 1–6", "experiment": "Immunoprecipitation of FAM-labeled peptide and Western blotting, exportins 1–6", "format": "binding, human", "conditions": "anti-FITC (FAM) immunoprecipitation, Western blotting, U251 cells", "method": "Data are representative of 3 independent experiments (n = 3).\nWhole cell lysates or tissue homogenates were prepared by using RIPA lysis buffer (50 mM Tris at pH 7.4, 150 mM NaCl, 1 mM EDTA, 0.5% NP-40, 1 mM NaF, 15% glycerol, and 20 mM β-glycerophosphate). A protease inhibitor cocktail (Mini Protease Inhibitor Cocktail; Roche) and a tyrosine phosphatase inhibitor, sodium orthovanadate (Na3VO4, 1 mM), were added freshly to the lysis buffer. Protein amounts were determined by BCA using a Thermo Fisher Scientific kit. Normalized protein amounts were subjected to an SDS-PAGE and transferred onto a nitrocellulose membrane for Western blotting. Proteins were visualized with a chemiluminescent detection kit (Pierce, Thermo Fisher Scientific). The protein levels for STAT1 (sc-346, E-23), STAT3 (sc-482, C-20), STAT5 (sc-74442, A-9), Crm1 (exportin 1) (sc-5595, H-300), CAS (exportin 2) (sc-271537, H-2), exportin 5 (sc-66885, H-300), and exportin 7 (sc-98639, H-82) were determined using antibodies from Santa Cruz Biotechnology Inc. Anti–exportin 3 (exportin T, 630622, LOS1 05-1525), anti–exportin 4 (3499-1), and anti–exportin 6 (11408-1-AP) were from MilliporeSigma, Epitomics, and Proteintech, respectively. […]"}, "p53 promoter": {"system": "p53 promoter", "experiment": "Luciferase reporter gene assay, p53 promoter", "format": "cell-based, human", "conditions": "HCT116, 1 μM, overnight at 37°C", "description": "Figure 3 PS-acet.-STAT3 peptide inhibits STAT3 activity and downregulates the expression of STAT3 targets. (A) Downregulation of STAT3 activity and its downstream target proteins shown in human HCT116 colorectal cancer cells by Western blotting (data represent 1 of the 3 experiments, n = 3). PO-acet.-STAT3 and PS-STAT3-K685R peptides were used in parallel as controls. (B) STAT3 inhibition regulated the expression of proliferation and apoptotic genes, assessed by real-time quantitative PCR. Data present mean ± SD, n = 3 independent experiments, 1-way ANOVA; ***P < 0.005; **P < 0.01. […] For p53 promoter assay, data represent 3 replicates in 3 independent experiments (n = 9). For cell proliferation assay, data represent 3 independent experiments. SD is shown (n = 3). One-way ANOVA; ***P < 0.005; **P < 0.01.\nA total of 1–2 × 10^6 HCT116 cells were seeded into each well of a 24-well plate (Cellstar) and transfected with a 13x RGC plasmid, with a Renilla luciferase construct (both plasmids provided by Bernhard Lüscher, RWTH, Aachen, Germany), using Lipofectamine 2000 (Invitrogen, Thermo Fisher Scientific), according to manufacturer’s instruction. On the following day, cells were treated with 1 μM of PO- and PS-acet.-STAT3 peptides at 37°C overnight. Luciferase activities were determined using the luciferase assay system (Promega)."}},
  "data": [
    {"substance": "PDIPKEEAFGK685(Ac)YCRPESQEHPC-linker-T*C*C*A*T*G*A*G*C*T*T*C*C*T*G*A*T*G*C*T [PS-acet.-STAT3 peptide]", "values": [
      {"measurement": "IL-6–induced STAT3 activation (pY705 phosphorylation) in CD8+ T cells", "setting": "pY705-STAT3", "result": "downregulated"},
      {"measurement": "behavior, body weight, blood counts", "setting": "[1]", "result": "No behavior changes, body weight loss, or abnormal blood counts"},
      {"measurement": "morphology and cell death in liver, spleen, kidney tissues (H&E)", "setting": "[1]", "result": "no significant morphology change or cell death"},
      {"measurement": "binding to exportins 1–6", "setting": "exportins 1–6", "result": "not"},
      {"measurement": "p53 promoter activity", "setting": "p53 promoter", "result": "significant increase"}
    ]}
  ]
}
